# Activity calls are given as the source filed them. The rule behind the calls is not given here.
# Key:
# [1] = tested on: Neuron; test: Negative allosteric modulation of human GABA receptor expressed in mouse DRG neurons assessed as inhibition of 340 nM GABA-induced responses at 0.5 uM using c-LTMRS; assay type: tissue-based; settings: filed as negative allosteric modulator
# [2] = molecular target: T1, GABA A receptor alpha-1/beta-1/gamma-2 (Homo sapiens, UniProt P14867+P18505+P18507); test: Negative allosteric modulation activity at human GABAA alpha1beta1gamma2 stably expressed in HEK cells by whole cell patch clamp method; assay type: cell-based
# T1 sequence (P14867 whole entry): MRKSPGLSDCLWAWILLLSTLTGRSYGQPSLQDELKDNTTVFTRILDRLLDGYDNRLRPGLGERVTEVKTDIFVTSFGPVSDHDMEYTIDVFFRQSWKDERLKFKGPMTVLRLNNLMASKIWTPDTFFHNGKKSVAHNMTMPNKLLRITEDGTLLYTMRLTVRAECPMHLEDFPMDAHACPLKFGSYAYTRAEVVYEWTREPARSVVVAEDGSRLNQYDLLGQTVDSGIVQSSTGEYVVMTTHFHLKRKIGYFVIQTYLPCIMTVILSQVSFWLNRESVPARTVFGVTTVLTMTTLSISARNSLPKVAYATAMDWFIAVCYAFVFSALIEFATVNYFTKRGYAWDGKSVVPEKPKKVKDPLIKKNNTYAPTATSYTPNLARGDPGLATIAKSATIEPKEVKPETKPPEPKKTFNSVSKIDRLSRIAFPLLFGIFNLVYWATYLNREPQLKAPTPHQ
# T1 sequence (P18507 whole entry): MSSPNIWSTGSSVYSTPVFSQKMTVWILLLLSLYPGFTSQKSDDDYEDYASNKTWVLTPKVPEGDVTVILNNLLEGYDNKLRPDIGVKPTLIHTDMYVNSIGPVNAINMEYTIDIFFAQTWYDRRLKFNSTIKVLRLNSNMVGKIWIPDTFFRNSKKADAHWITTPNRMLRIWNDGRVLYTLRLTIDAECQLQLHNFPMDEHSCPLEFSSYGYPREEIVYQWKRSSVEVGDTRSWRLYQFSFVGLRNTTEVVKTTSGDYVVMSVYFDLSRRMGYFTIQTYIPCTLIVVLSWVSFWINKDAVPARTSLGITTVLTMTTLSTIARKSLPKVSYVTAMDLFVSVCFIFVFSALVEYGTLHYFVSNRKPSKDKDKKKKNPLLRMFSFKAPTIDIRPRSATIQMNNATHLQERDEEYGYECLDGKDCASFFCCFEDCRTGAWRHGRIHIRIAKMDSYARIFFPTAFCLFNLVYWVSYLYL
# T1 sequence (P18505 whole entry): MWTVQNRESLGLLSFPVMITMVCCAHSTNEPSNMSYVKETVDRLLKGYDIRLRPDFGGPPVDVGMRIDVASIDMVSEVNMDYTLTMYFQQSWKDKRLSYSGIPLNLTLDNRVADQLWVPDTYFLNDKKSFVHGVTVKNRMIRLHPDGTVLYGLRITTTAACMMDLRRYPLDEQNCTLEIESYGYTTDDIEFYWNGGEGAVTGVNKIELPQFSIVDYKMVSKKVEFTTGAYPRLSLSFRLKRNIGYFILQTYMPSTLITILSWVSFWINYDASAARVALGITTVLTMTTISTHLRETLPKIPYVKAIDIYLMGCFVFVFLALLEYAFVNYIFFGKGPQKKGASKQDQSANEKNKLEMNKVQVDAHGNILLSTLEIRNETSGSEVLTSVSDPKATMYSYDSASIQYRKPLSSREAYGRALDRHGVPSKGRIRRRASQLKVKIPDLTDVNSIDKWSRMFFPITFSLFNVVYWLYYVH
# [3] = tested on: Neuron; test: Negative allosteric modulation of human GABA receptor expressed in mouse DRG neurons assessed as inhibition of 340 nM GABA-induced responses at 0.5 uM using cold thermo-sensors; assay type: tissue-based; settings: filed as negative allosteric modulator
compound,measurement,setting,value
CC(C)CCC[C@@H](C)[C@H]1CC[C@H]2[C@@H]3C(=O)C=C4C=CCC[C@]4(C)[C@H]3CC[C@]12C,Activity,[1],Active
same,IC50,[2],1.5 µM
same,Activity,[3],Active

# From ChEMBL document CHEMBL5032490, “Neuroactive Type-A γ-Aminobutyric Acid Receptor Allosteric Modulator Steroids from the Hypobranchial Gland of Marine Mollusk, Conus geographus” (J Med Chem, 2021)
